From patent US20050049294A1, “Methods of using [3.2.0] heterocyclic compounds and analogs thereof” (priority 2003, published 2005) come the findings set out here.

One may read the EC50 as the concentration at which the effect is half-maximal.

Series [1] concerns MIA PaCa-2 cells. Nature of the series: Cell growth inhibition (resazurin, 48 hours), MIA PaCa-2. The following applies: Table 2, MIA PaCa-2, human pancreatic carcinoma, read-out: EC50 (nM), mean ± SD. The series is classed as cell-based. Background: Resazurin is reduced to fluorescent resorufin, in cell work by metabolically active cells.
Series [2] has as its system DU 145 cells. Nature of the series: Cell growth inhibition (resazurin, 48 hours), DU 145. The class given is cell-based, human. The following applies: for EC50: read-out: EC50 (nM), mean ± SD.
Series [3] deals with PARP and Pro-Caspase 3 cleavage in RPMI 8226 cells. Nature of the series: Cleavage of PARP and Pro-Caspase 3 (western blot), RPMI 8226. The series is classed as cell-based, human. The following applies: 100 nM, 0, 8 or 24 hours. The procedure: Total protein lysates were made and 20 μg of the lysates were then resolved under reducing/denaturing conditions and blotted onto nitrocellulose. The blots were then probed with anti-PARP or anti-caspase 3 antibodies followed by stripping and reprobing with an anti-actin antibody.
25 μg of the lysates were then resolved under reducing/denaturing conditions and blotted onto nitrocellulose. The blots were then probed with anti-PARP or anti-caspase 3 antibodies followed by stripping and reprobing with an anti-actin antibody.

The test system of series [4] is PANC-1 cells. Nature of the series: Cell growth inhibition (resazurin, 48 hours), PANC-1. The series is classed as cell-based. Particulars: Table 2, PANC-1, human pancreatic carcinoma, read-out: EC50 (nM), mean ± SD.

Read-outs that look alike come from different tables or passages of the source.

Turning to `C[C@@]12OC(=O)[C@]1([C@@H](O)[C@@H]1C=CCCC1)NC(=O)[C@@H]2CCCl` [Formula II-16, Salinosporamide A], the EC50 in series [1] worked out at 46 nM; in series [2] (Homo sapiens, Table 6, DU 145 (n = 3)), 37 ± 10 nM; in series [2] (Table 2, DU 145, human prostate carcinoma, 48 hours) it was 37 ± 10 nM; in series [4] it was 60 nM. The “% cytotoxicity, mean ± SD” value in series [2] (Table 6, DU 145 (n = 3)) is given as 75 ± 4%. Also, the “induction of PARP cleavage” value in series [3] was “noticeable at 8 hours and complete by 24 hours”.
